The text below walks through data of patent US5416222A, “3-pyrrolidine methanamines wherein the alpha-carbon is substituted by 1 or 2 lower alkyl groups which are intermediates for pyridone-carboxylic acid derivatives” (Daiichi Seiyaku Co., Ltd., priority 1985, dated 1995).

Common to all, as to test: antimicrobial activity, MIC, standard process of Japan Society of Chemotherapy
Holding throughout (assay type): cell-based

The subject of one assay is S. aureus, 209P. Particulars: for MIC: Staphylococcus aureus, read-out: minimum growth inhibitory concentration (MIC). Here is the method:
(§1) The antimicrobial activities of the compounds of the present invention were determined according to a standard process designated by the Japan Society of Chemotherapy and the minimum growth inhibitory concentrations (MIC) (μg/ml) the compounds were determined.

The subject of the next assay is Ser. marcescens, 13001. The conditions noted are these: for minimum growth inhibitory concentration (MIC): Ser. marcescens; for MIC: Serratia marcescens, 13001, Ser. marcescens, read-out: minimum growth inhibitory concentration (MIC). The protocol: as §1
For another assay, the system named is Str. pyogenes, G-36. The conditions noted are these: for MIC: Streptococcus pyogenes, G36, Str. pyogenes, read-out: minimum growth inhibitory concentration (MIC); for minimum growth inhibitory concentration (MIC): Str. pyogenes. Here is the method: as §1
In the next assay the test system is E. coli, NIHJ. The conditions noted are these: for MIC: Escherichia coli, read-out: minimum growth inhibitory concentration (MIC). Here is the method:
as §1

In another assay the test system is S. epidermidis, 56500. Particulars: for MIC: Staphylococcus epidermidis, 56500, S. epidermidis, read-out: minimum growth inhibitory concentration (MIC); for minimum growth inhibitory concentration (MIC): S. epidermidis. Here is the method: as §1
The subject of another assay is Ps. cepacia, IID1340. The conditions noted are these: for MIC: Burkholderia cepacia, IID1340, Ps. cepacia, read-out: minimum growth inhibitory concentration (MIC). The protocol:
as §1

The subject of another assay is Pr. mirabilis, IF03849. The conditions noted are these: for MIC: Proteus mirabilis, IF03849, Pr. mirabilis, read-out: minimum growth inhibitory concentration (MIC). Here is the method: as §1
In a further assay the test system is Ps. aeruginosa, 2128. The conditions noted are these: for minimum growth inhibitory concentration (MIC): Ps. aeruginosa; for MIC: Pseudomonas aeruginosa, 2128, Ps. aeruginosa, read-out: minimum growth inhibitory concentration (MIC). The protocol: as §1
A further assay has as its system Sh. flexneri, 2a5503. The conditions noted are these: for MIC: Shigella flexneri, read-out: minimum growth inhibitory concentration (MIC). The protocol:
as §1

For the next assay, the system named is Ps. maltophilia, IID1275. Particulars: for MIC: Stenotrophomonas maltophilia, IID1275, Ps. maltophilia, read-out: minimum growth inhibitory concentration (MIC). Here is the method: as §1
The next assay deals with Pr. vulgaris, 3167. Particulars: for MIC: Proteus vulgaris, 3167, Pr. vulgaris, read-out: minimum growth inhibitory concentration (MIC); for minimum growth inhibitory concentration (MIC): Pr. vulgaris. Here is the method:
as §1

Another assay relates to Ps. aeruginosa, 2063. Particulars: for minimum growth inhibitory concentration (MIC): Ps. aeruginosa; for MIC: Pseudomonas aeruginosa, 2063, Ps. aeruginosa, read-out: minimum growth inhibitory concentration (MIC). The protocol:
as §1

The test system of assay [1] is Str. faecalis, ATCC 19433. The conditions noted are these: for MIC: Enterococcus faecalis, ATCC19433, Str. faecalis, read-out: minimum growth inhibitory concentration (MIC); for minimum growth inhibitory concentration (MIC): Str. faecalis. The protocol:
as §1

Structures are written as SMILES. Values after ≈ are worked out from the molar mass of the structure shown. Where only a bound is given, the exact number is not on record here.

Turning to `CC(N)C1CCN(c2c(F)cc3c(=O)c(C(=O)O)cn(C4CC4)c3c2F)C1` (single isomer, unassigned) [Example 1, 7-[3-(1-Aminoethyl)-1-pyrrolidinyl]-1-cyclopropyl-6,8-difluoro-1,4-dihydro-4-oxoquinoline-3-carboxylic acid], the MIC in the assay on S. aureus, 209P was 0.1 µg/mL (≈ 0.265 µM); in the assay on Str. pyogenes, G-36, 0.1 µg/mL (≈ 0.265 µM); with E. coli, NIHJ, no more than 0.05 µg/mL; with S. epidermidis, 56500, 0.1 µg/mL (≈ 0.265 µM); in the assay on Ps. cepacia, IID1340 it was 0.78 µg/mL (≈ 2.07 µM); in the assay with Pr. mirabilis, IF03849, 0.1 µg/mL (≈ 0.265 µM). The MIC in the assay on Sh. flexneri, 2a5503 was no more than 0.05 µg/mL; in the assay with Ps. maltophilia, IID1275 it was 0.2 µg/mL (≈ 0.53 µM); with Pr. vulgaris, 3167, 0.1 µg/mL (≈ 0.265 µM); in assay [1], 0.1 µg/mL (≈ 0.265 µM). Also, the “minimum growth inhibitory concentration (MIC)” value was 0.20 µg/mL in the assay with Ser. marcescens, 13001; 0.20 µg/mL in the assay with Ps. aeruginosa, 2128; 0.78 µg/mL in the assay with Ps. aeruginosa, 2063.
Take `CCn1cc(C(=O)O)c(=O)c2cc(F)c(N3CCC(C(C)N)C3)c(F)c21` (single isomer, unassigned) [Example 3, 7-[3-(1-Aminoethyl)-1-pyrrolidinyl]-1-ethyl-6,8-difluoro-1,4-dihydro-4-oxoquinoline-3-carboxylic acid]: the MIC with S. aureus, 209P is no more than 0.05 µg/mL; with Ser. marcescens, 13001, 0.2 µg/mL (≈ 0.547 µM); with E. coli, NIHJ it was no more than 0.05 µg/mL; with Ps. cepacia, IID1340, 1.56 µg/mL (≈ 4.27 µM); in the assay with Pr. mirabilis, IF03849, 0.2 µg/mL (≈ 0.547 µM); in the assay with Ps. aeruginosa, 2128, 0.2 µg/mL (≈ 0.547 µM). The MIC with Sh. flexneri, 2a5503 was no more than 0.05 µg/mL; in the assay with Ps. maltophilia, IID1275 it was 0.78 µg/mL (≈ 2.13 µM); in the assay on Ps. aeruginosa, 2063, 0.39 µg/mL (≈ 1.07 µM). Moreover, the “minimum growth inhibitory concentration (MIC)” value in the assay with Str. pyogenes, G-36 was determined as 0.39 µg/mL; in the assay with S. epidermidis, 56500, 0.20 µg/mL; with Pr. vulgaris, 3167, 0.20 µg/mL; in [1] it was 0.39 µg/mL.
Take `CCn1cc(C(=O)O)c(=O)c2cc(F)c(N3CCC(C4(N)CC4)C3)c(F)c21` (centres unmarked) [Example 16, 7-[3-(1-aminocyclopropyl)-1-pyrrolidinyl]-1-ethyl-6,8-difluoro-1,4-dihydro-4-oxoquinoline-3-carboxylic acid]: the MIC is no more than 0.05 µg/mL in the assay on S. aureus, 209P; 0.39 µg/mL (≈ 1.03 µM) in the assay with Ser. marcescens, 13001; 0.2 µg/mL (≈ 0.53 µM) with Str. pyogenes, G-36; no more than 0.05 µg/mL in the assay with E. coli, NIHJ; 0.2 µg/mL (≈ 0.53 µM) in the assay with S. epidermidis, 56500; 0.78 µg/mL (≈ 2.07 µM) in the assay on Ps. cepacia, IID1340. For the same compound, the MIC with Pr. mirabilis, IF03849 is 0.39 µg/mL (≈ 1.03 µM); with Ps. aeruginosa, 2128, 0.39 µg/mL (≈ 1.03 µM); in the assay on Sh. flexneri, 2a5503, no more than 0.05 µg/mL; with Ps. maltophilia, IID1275, 0.39 µg/mL (≈ 1.03 µM); in the assay with Pr. vulgaris, 3167, 0.2 µg/mL (≈ 0.53 µM); in the assay on Ps. aeruginosa, 2063, 1.56 µg/mL (≈ 4.13 µM). Further, the MIC in assay [1] was determined as 0.39 µg/mL (≈ 1.03 µM).
`CCC(N)C1CCN(c2c(F)cc3c(=O)c(C(=O)O)cn(CC)c3c2F)C1` (centres unmarked) [Example 10, 7-[3-(1-Aminopropyl)-1-pyrrolindinyl]-1-ethyl-6,8-difluoro-1,4-dihydro-4-oxoquinoline-3-carboxylic acid]: the MIC was no more than 0.05 µg/mL in the assay on S. aureus, 209P; 0.2 µg/mL (≈ 0.527 µM) in the assay with Ser. marcescens, 13001; no more than 0.05 µg/mL with Str. pyogenes, G-36; no more than 0.05 µg/mL in the assay on E. coli, NIHJ; 0.1 µg/mL (≈ 0.264 µM) in the assay on S. epidermidis, 56500; 1.56 µg/mL (≈ 4.11 µM) in the assay with Ps. cepacia, IID1340. Also, the MIC in the assay with Pr. mirabilis, IF03849 was 0.2 µg/mL (≈ 0.527 µM); in the assay with Ps. aeruginosa, 2128, 6.39 µg/mL (≈ 16.8 µM); in the assay on Sh. flexneri, 2a5503, no more than 0.05 µg/mL; in the assay on Ps. maltophilia, IID1275, 0.39 µg/mL (≈ 1.03 µM); in the assay with Pr. vulgaris, 3167, 0.1 µg/mL (≈ 0.264 µM); with Ps. aeruginosa, 2063 it was 1.56 µg/mL (≈ 4.11 µM). The MIC in [1] is no more than 0.05 µg/mL.
As to `CC(N)C1CCN(c2nc3c(cc2F)c(=O)c(C(=O)O)cn3C2CC2)C1` (centres unmarked) [Example 19], the “minimum growth inhibitory concentration (MIC)” value in the assay on S. aureus, 209P was no more than 0.05 µg/mL; in the assay on Ser. marcescens, 13001, no more than 0.05 µg/mL; in the assay with Str. pyogenes, G-36, 0.20 µg/mL; with E. coli, NIHJ, no more than 0.05 µg/mL; in the assay with S. epidermidis, 56500 it was no more than 0.05 µg/mL; in the assay with Ps. cepacia, IID1340 (Ps. cepacia), 0.39 µg/mL. For the same compound, the “minimum growth inhibitory concentration (MIC)” value is 0.10 µg/mL with Pr. mirabilis, IF03849 (Pr. mirabilis); no more than 0.05 µg/mL in the assay on Ps. aeruginosa, 2128; no more than 0.05 µg/mL in the assay with Sh. flexneri, 2a5503; 0.20 µg/mL with Ps. maltophilia, IID1275 (Ps. maltophilia); no more than 0.05 µg/mL in the assay with Pr. vulgaris, 3167; 0.20 µg/mL in the assay with Ps. aeruginosa, 2063. In addition, in assay [1], the “minimum growth inhibitory concentration (MIC)” value stood at 0.10 µg/mL.
